For assay [1], the target named is T1, purified human Factor XIa (Homo sapiens, UniProt P03951).
T1 construct: purchased Haematologic Technologies
As to the kind of experiment: Factor XIa inhibition assay, chromogenic substrate S-2366 (Ki). It counts as biochemical. The protocol:
(§1) The effectiveness of compounds of the present invention as inhibitors of the coagulation Factors XIa, VIIa, IXa, Xa, XIIa, plasma kallikrein or thrombin, can be determined using a relevant purified serine protease, respectively, and an appropriate synthetic substrate. The rate of hydrolysis of the chromogenic or fluorogenic substrate by the relevant serine protease was measured both in the absence and presence of compounds of the present invention. […] A decrease in the rate of absorbance or fluorescence change in the presence of inhibitor is indicative of enzyme inhibition. Such methods are known to one skilled in the art. The results of this assay are expressed as the inhibitory constant, Ki.
Factor XIa determinations were made in 50 mM HEPES buffer at pH 7.4 containing 145 mM NaCl, 5 mM KCl, and 0.1% PEG 8000 (polyethylene glycol; JT Baker or Fisher Scientific). Determinations were made using purified human Factor XIa at a final concentration of 25-200 pM (Haematologic Technologies) and the synthetic substrate S-2366 (pyroGlu-Pro-Arg-pNA; Chromogenix or AnaSpec) at a concentration of 0.0002-0.001 M.
(§2) Values of Ki were determined by allowing the protease to react with the substrate in the presence of the inhibitor.
(§3) Reactions were allowed to go for periods of 20-180 minutes (depending on the protease) and the velocities (rate of absorbance or fluorescence change versus time) were measured.
(§4) The following relationships were used to calculate Ki values: (Vmax*S)/(Km+S) (vo−vs)/vs=I/(Ki(1+S/Km)) for a competitive inhibitor with one binding site; or vs/vo=A+((B−A)/1+((IC50/(I)^n))); and Ki=IC50/(1+S/Km) for a competitive inhibitor where: […]

Assay [2] addresses T2, purified human plasma kallikrein (Homo sapiens, UniProt P03952).
T2 construct: Plasma prekallikrein is a zymogen of a trypsin-like serine protease; purchased Enzyme Research Laboratories
As to the kind of experiment: Plasma kallikrein inhibition assay, chromogenic substrate S-2302 (Ki). The class given is biochemical. Here is the method: as §1
Plasma kallikrein determinations were made in 0.1 M sodium phosphate buffer at a pH of 7.5 containing 0.1-0.2 M sodium chloride and 0.5% PEG 8000. Determinations were made using purified human plasma kallikrein (Enzyme Research Laboratories) at a final assay concentration of 200 pM and the synthetic substrate S-2302 (H-(D)-Pro-Phe-Arg-pNA; Chromogenix) at a concentration of 0.00008-0.0004 M.
as §2, §3, §4

Results on 16 molecules are retold here after US10273236B2, “Macrocyclic factor XIa inhibitors bearing heterocyclic groups” (Bristol-Myers Squibb Company, priority 2014, dated 2019).

Where a name gives a salt, the structure may show the parent alone.

As usually defined, the Ki is a dissociation constant, usually derived from enzyme kinetics or from competition with a known ligand. Read a high Ki as lower affinity.

T1 sequence (P03951 388-625 limits assumed): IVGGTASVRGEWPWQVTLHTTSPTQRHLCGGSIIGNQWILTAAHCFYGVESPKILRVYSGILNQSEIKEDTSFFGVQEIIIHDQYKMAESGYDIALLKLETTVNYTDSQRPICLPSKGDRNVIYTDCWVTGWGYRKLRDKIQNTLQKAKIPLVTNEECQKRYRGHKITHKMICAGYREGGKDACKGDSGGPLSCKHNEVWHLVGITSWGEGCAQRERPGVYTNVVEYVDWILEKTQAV
T1 sequence (P03951 19-387 partner limits assumed): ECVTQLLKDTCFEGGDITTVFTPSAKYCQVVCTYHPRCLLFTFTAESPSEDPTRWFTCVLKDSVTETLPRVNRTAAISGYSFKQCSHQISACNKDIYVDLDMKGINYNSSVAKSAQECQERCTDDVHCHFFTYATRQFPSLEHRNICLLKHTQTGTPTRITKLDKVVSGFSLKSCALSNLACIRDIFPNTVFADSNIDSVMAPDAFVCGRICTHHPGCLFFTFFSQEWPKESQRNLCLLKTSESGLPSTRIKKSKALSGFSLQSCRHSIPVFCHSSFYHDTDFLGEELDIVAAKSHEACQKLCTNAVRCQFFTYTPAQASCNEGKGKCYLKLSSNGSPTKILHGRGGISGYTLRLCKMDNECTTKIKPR
T2 sequence (P03952 391-638 limits assumed): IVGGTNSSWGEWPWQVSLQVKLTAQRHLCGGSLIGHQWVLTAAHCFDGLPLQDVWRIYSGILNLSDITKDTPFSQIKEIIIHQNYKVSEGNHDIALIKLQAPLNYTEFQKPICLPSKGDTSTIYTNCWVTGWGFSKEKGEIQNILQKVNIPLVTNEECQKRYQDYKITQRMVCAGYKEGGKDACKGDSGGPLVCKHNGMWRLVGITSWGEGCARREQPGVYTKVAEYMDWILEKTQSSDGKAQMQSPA
T2 sequence (P03952 20-390 partner limits assumed): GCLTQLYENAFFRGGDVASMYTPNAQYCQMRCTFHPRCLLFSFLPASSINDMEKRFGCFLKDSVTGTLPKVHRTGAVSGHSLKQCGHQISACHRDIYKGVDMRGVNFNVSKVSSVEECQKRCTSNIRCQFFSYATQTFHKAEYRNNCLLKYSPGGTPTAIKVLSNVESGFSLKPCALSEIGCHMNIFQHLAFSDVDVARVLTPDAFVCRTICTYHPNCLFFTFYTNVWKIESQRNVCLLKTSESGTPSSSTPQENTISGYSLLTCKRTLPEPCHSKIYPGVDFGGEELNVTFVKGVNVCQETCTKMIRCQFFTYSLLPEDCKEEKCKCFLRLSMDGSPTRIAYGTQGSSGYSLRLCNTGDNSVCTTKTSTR

Take `C[C@@H]1CCC[C@H](N2CCC(c3cc(Cl)ccc3-c3cnn(C(F)F)c3)=CC2=O)c2cc(ccn2)-c2c(cnn2C)NC1=O` [Example 38, (9R,13S)-13-(4-{5-chloro-2-[1-(difluoromethyl)-1H-pyrazol-4-yl]phenyl}-6-oxo-1,2,3,6-tetrahydropyridin-1-yl)-3,9-dimethyl-3,4,7,15-tetraazatricyclo[12.3.1.0^2,6]octadeca-1(18),2(6),4,14,16-pentaen-8-one]: the Ki in assay [1] is 1.8 nM; in assay [2], 120 nM.

Take `C[C@@H]1CCC[C@H](n2ccc(-c3cc(Cl)ccc3C#N)cc2=O)c2cc(ccn2)-c2c(cnn2C(F)F)NC1=O` [Example 4, 4-chloro-2-{1-[(9R,13S)-3-(difluoromethyl)-9-methyl-8-oxo-3,4,7,15-tetraazatricyclo[12.3.1.0^2,6]octadeca-1(18),2(6),4,14,16-pentaen-13-yl]-2-oxo-1,2-dihydropyridin-4-yl}benzonitrile]: the results for the Ki in assay [1] and in assay [2] were 3.2 nM and 19 nM, respectively.

For the molecule `C[C@@H]1CCC[C@H](N2CCC(c3cc(Cl)ccc3-n3cc(Cl)nn3)=CC2=O)c2cc(ccn2)-c2c(cnn2CCOC(C)(C)C)NC1=O` [Example 34, (9R,13S)-3-[2-(tert-butoxy)ethyl]-13-{4-[5-chloro-2-(4-chloro-1H-1,2,3-triazol-1-yl)phenyl]-6-oxo-1,2,3,6-tetrahydropyridin-1-yl}-9-methyl-3,4,7,15-tetraazatricyclo[12.3.1.0^2,6]octadeca-1(18),2(6),4,14,16-pentaen-8-one], the Ki in assay [1] stood at 1.1 nM; in assay [2], 50 nM.

On to `[2H]C([2H])([2H])n1ncc2c1-c1ccnc(c1)[C@@H](N1CCC(c3c(C(F)F)ccc(Cl)c3F)=CC1=O)CCC[C@@H](C)C(=O)N2` [Example 29, (9R,13S)-13-{4-[3-chloro-6-(difluoromethyl)-2-fluorophenyl]-6-oxo-1,2,3,6-tetrahydropyridin-1-yl}-3-(^2H3)methyl-9-methyl-3,4,7,15-tetraazatricyclo[12.3.1.0^2,6]octadeca-1(18),2(6),4,14,16-pentaen-8-one], for which the Ki is 0.6 nM in assay [1] and 6 nM in assay [2].

In the case of `C[C@@H]1CCC[C@H](N2CCC(c3cc(Cl)ccc3-n3cc(Cl)nn3)=CC2=O)c2cccc(n2)-c2c(cnn2C)NC1=O` [Example 43, (9R,13S)-13-{4-[5-chloro-2-(4-chloro-1H-1,2,3-triazol-1-yl)phenyl]-6-oxo-1,2,3,6-tetrahydropyridin-1-yl}-3,9-dimethyl-3,4,7,18-tetraazatricyclo[12.3.1.0^2,6]octadeca-1(18),2(6),4,14,16-pentaen-8-one], the Ki in assay [1] was found to be 4.1 nM; in assay [2] it was 110 nM.

Turning to `C[C@@H]1CCC[C@H](N2CCC(c3c(C(F)(F)F)ccc(Cl)c3F)=CC2=O)c2cc(ccn2)-c2c(cnn2C(F)F)NC1=O` [Example 14, (9R,13S)-13-{4-[3-chloro-2-fluoro-6-(trifluoromethyl)phenyl]-6-oxo-1,2,3,6-tetrahydropyridin-1-yl}-3-(difluoromethyl)-9-methyl-3,4,7,15-tetraazatricyclo[12.3.1.0^2,6]octadeca-1(18),2(6),4,14,16-pentaen-8-one], the Ki in assay [1] came out at 1 nM; in assay [2], 110 nM.

For `C[C@@H]1CCC[C@H](N2CCC(c3cc(Cl)ccc3-n3ccnn3)=CC2=O)c2cc(ccn2)-c2c(cnn2C)NC1=O` [Example 1, (9R,13S)-13-{4-[5-chloro-2-(1H-1,2,3-triazol-1-yl)phenyl]-6-oxo-1,2,3,6-tetrahydropyridin-1-yl}-3,9-dimethyl-3,4,7,15-tetraazatricyclo[12.3.1.0^2,6]octadeca-1(18),2(6),4,14,16-pentaen-8-one trifluoroacetate], the Ki in assay [1] was determined as 1.8 nM; in assay [2] it was 24 nM.

On to `C[C@@H]1CCC[C@H](N2CCC(c3cc(Cl)ccc3-n3cc(Cl)nn3)=CC2=O)c2cc(ccn2)-c2c(cnn2CC(F)F)NC1=O` [Example 52, (9R,13S)-13-{4-[5-chloro-2-(4-chloro-1H-1,2,3-triazol-1-yl)phenyl]-6-oxo-1,2,3,6-tetrahydropyridin-1-yl}-3-(2,2-difluoroethyl)-9-methyl-3,4,7,15-tetraazatricyclo[12.3.1.0^2,6]octadeca-1(18),2(6),4,14,16-pentaen-8-one], for which the Ki turned out to be 0.76 nM in assay [1] and 22 nM in assay [2].

With `C[C@@H]1CCC[C@H](N2CCC(c3cc(Cl)ccc3-n3ccnn3)=CC2=O)c2cc(ccn2)-c2c(cnn2C2CCC2)NC1=O` [Example 54, (9R,13S)-13-{4-[5-chloro-2-(1H-1,2,3-triazol-1-yl)phenyl]-6-oxo-1,2,3,6-tetrahydropyridin-1-yl}-3-cyclobutyl-9-methyl-3,4,7,15-tetraazatricyclo[12.3.1.0^2,6]octadeca-1(18),2(6),4,14,16-pentaen-8-one], the results for the Ki in assay [1] and in assay [2] were 7.1 nM and 150 nM, respectively.

On to `C[C@@H]1CCC[C@H](N2CCC(c3cc(Cl)ccc3-n3cc(Cl)nn3)=CC2=O)c2cc(ccn2)-c2c(cnn2C)NC1=O` [Example 3, (9R,13S)-13-{4-[5-chloro-2-(4-chloro-1H-1,2,3-triazol-1-yl)phenyl]-6-oxo-1,2,3,6-tetrahydropyridin-1-yl}-3,9-dimethyl-3,4,7,15-tetraazatricyclo [12.3.1.0^2,6]octadeca-1(18),2(6),4,14,16-pentaen-8-one], for which the Ki was 0.12 nM in assay [1] and 6 nM in assay [2].

On to `C[C@@H]1CCC[C@H](N2CCC(c3cc(Cl)ccc3-n3cc(Cl)nn3)=CC2=O)c2cc(ccn2)-c2c(cnn2CCO)NC1=O` [Example 35, (9R,13S)-13-{4-[5-chloro-2-(4-chloro-1H-1,2,3-triazol-1-yl)phenyl]-6-oxo-1,2,3,6-tetrahydropyridin-1-yl}-3-(2-hydroxyethyl)-9-methyl-3,4,7,15-tetraazatricyclo[12.3.1.0^2,6]octadeca-1(18),2(6),4,14,16-pentaen-8-one], for which the Ki came out at 0.82 nM in assay [1] and 32 nM in assay [2].

On to `C[C@@H]1CCC[C@H](N2CCC(c3c(C(F)(F)F)ccc(Cl)c3F)=CC2=O)c2cc(ccn2)-c2nn(-c3cncnc3)cc2NC1=O` [Example 47, (9R,13S)-13-{4-[3-chloro-2-fluoro-6-(trifluoromethyl)phenyl]-6-oxo-1,2,3,6-tetrahydropyridin-1-yl}-9-methyl-4-(pyrimidin-5-yl)-3,4,7,15-tetraazatricyclo[12.3.1.0^2,6]octadeca-1(18),2,5,14,16-pentaen-8-one], for which the figures for the Ki in assay [1] and in assay [2] were 5.4 nM and 13 nM, respectively.

For the molecule `[2H]C([2H])([2H])n1ncc2c1-c1ccnc(c1)[C@@H](n1ncc(-c3cc(Cl)ccc3-n3cc(C(F)(F)F)nn3)cc1=O)CCC[C@@H](C)C(=O)N2` [Example 63, (9R,13S)-13-(4-{5-Chloro-2-[4-(trifluoromethyl)-1H-1,2,3-triazol-1-yl]phenyl}-6-oxo-1,6-dihydropyridazin-1-yl)-3-(^2H3)methyl-9-methyl-3,4,7,15-tetraazatricyclo[12.3.1.0^2,6]octadeca-1(18),2(6),4,14,16-pentaen-8-one trifluoroacetate], the results for the Ki in assay [1] and in assay [2] were 0.52 nM and 77 nM, respectively.

In the case of `C[C@@H]1CCC[C@H](N2CCC(c3cc(Cl)ccc3-n3ccnn3)=CC2=O)c2cc(ccn2)-c2c(cnn2C(F)F)NC1=O` [Example 53, (9R)-13-{4-[5-chloro-2-(1H-1,2,3-triazol-1-yl)phenyl]-6-oxo-1,2,3,6-tetrahydropyridin-1-yl}-3-(difluoromethyl)-9-methyl-3,4,7,15-tetraazatricyclo[12.3.1.0^2,6]octadeca-1(18),2(6),4,14,16-pentaen-8-one], the Ki stood at 0.87 nM in assay [1] and 37 nM in assay [2].

In the case of `C[C@@H]1CCC[C@H](N2CCC(c3c(Br)ccc(Cl)c3F)=CC2=O)c2cc(ccn2)-c2c(cnn2C)NC1=O` [Example 36, (9R,13S)-13-[4-(6-bromo-3-chloro-2-fluorophenyl)-6-oxo-1,2,3,6-tetrahydropyridin-1-yl]-3,9-dimethyl-3,4,7,15-tetraazatricyclo[12.3.1.0^2,6]octadeca-1(18),2(6),4,14,16-pentaen-8-one], the Ki in assay [1] was 1.7 nM; in assay [2], 5 nM.

Consider `C[C@H]1C(=O)Nc2cnn(C)c2-c2cc(F)cc(c2)[C@@H](N2CCC(c3cc(Cl)ccc3-n3cc(Cl)nn3)=CC2=O)CCC1F` (stereo partly drawn) [Example 50, (9S,13S)-13-{4-[5-chloro-2-(4-chloro-1H-1,2,3-triazol-1-yl)phenyl]-6-oxo-1,2,3,6-tetrahydropyridin-1-yl}-10,16-difluoro-3,9-dimethyl-3,4,7-triazatricyclo[12.3.1.0^2,6]octadeca-1(18),2(6),4,14,16-pentaen-8-one], for which the Ki in assay [1] came out at 0.1 nM; in assay [2] it was 8 nM.
